Source: patent publication US20150031102A1, “METHODS AND COMPOSITIONS FOR ENHANCED PRODUCTION OF BUTANOL BY CLOSTRIDIA” (Butrolix LLC, priority 2012, published 2015)

System: C. acetobutylicum ATCC 824
Test: Germination and sequential batch cultures of C. acetobutylicum ATCC 824 grown at 37° C. (growth OD600, final pH, ceric ion reactive compounds)
Type: cell-based, Clostridium acetobutylicum
Procedure: Clostridium acetobutylicum ATCC 824 and C. beijerinckii NCIMB 8052 are available from several commercial microbial culture collections including the American Type Culture Collection (ATCC), Manassas, Va., USA. The strain grown at 30 C or 37 C in YE broth, which contained, per liter: 5.0 g yeast extract, 2.5 g casamino acids, 1.0 g L-asparagine, 0.5 g cysteine·HCl, 56 mg K2HPO4, 56 mg KH2PO4, 82 mg anhydrous MgSO4, 8 mg FeSO4.H2O, 6 mg MnSO4.H2O and 10 g glucose. Alternatively, strains were grown in YEPG broth, which was identical to YE expect that K2HPO4 and KH2PO4 were increased to 145 mg/L each and glucose was increased to 60 g/L. The pH of the media was adjusted to 7.2 using 45% KOH prior to sterilization by autoclaving. Media were solidified by addition of 1.5% Bacteriological Agar, Acumedia Manufacturers, Inc., Lansing, Mich. All cultures were grown in anaerobic conditions using the AnaeroPack System, Mitsubishi Gas Chemical Co., Inc., Japan, and GasPak EZ Gas Generating Sachets, Becton, Dickinson and Co., Sparks, Md. Spore stocks were kept at room temperature on agar-solidified media and were activated by suspending spores in 0.5 mL to 1.0 mL of medium followed by heating for 10 min at 80 C before inoculation into growth medium.
Growth of bacterial cultures was measured spectrophotometrically using optical density at 600 nm and pH of cell-free culture supernatants was measured using a hand-held Shindengen ISFET pH Meter KS501, Shendengen Electric Manufacturing Co., Ltd., Bannockburn, Ill.
Total alcohols in cell-free culture supernatants were measured using a modification of a colorimetric method based on ceric ammonium nitrate (Reid and Truelove, 1952). The ceric ion reagent was prepared by adding 1.3 mL of concentrated nitric acid to 40 mL of distilled water, then 10.96 g of ceric ammonium nitrate was dissolved in the dilute nitric acid solution and the solution was brought to a final volume of 50 mL. For the assay, […] of butanol standard or culture supernatant was mixed with […] distilled water in a disposable plastic cuvette followed by addition of […] of the ceric ion reagent. The sample was mixed by inverting the cuvette six times then exactly two minutes later the optical density at 500 nm wavelength was measured. The concentration of total alcohols was determined by comparison with a standard curve prepared by using butanol diluted in distilled water.
Spores of C. acetobutylicum ATCC 824 were germinated and grown overnight at 37 C under anaerobic conditions in YEPG medium that either contained 50 nM of peptide SEQ ID NO: 143 or no added peptide. After about 24 h of growth, […] of the untreated culture was transferred (transfer 1) to each of two flasks that contained 10 mL of YEPG with either no treatment or with 50 nM peptide SEQ ID NO: 143. At the same time, 10 μL of the culture that was germinated in the presence of peptide SEQ ID NO: 143 was also transferred to 10 mL of YEPG that contained 50 nM of peptide SEQ ID NO: 143. Thereafter, […] of each culture was transferred, at the same time, every 24-48 h to 10 mL of fresh YEPG that contained the same peptide treatment or no treatment. Each culture was stopped after 72 hours if incubation and optical density, pH and ceric ion reactive chemicals were measured. Sequential batch culturing was continued through 3 transfers at which point the untreated culture and the culture that was germinated and transferred in 50 nM of peptide were still growing, while the culture that was treated with peptide after germination had stopped growing (Table 15 and FIG. 7).

[1] = 50 nM added after germination, transfer 1, 72 h culture
[2] = 50 nM added after germination, transfer 2, 72 h culture
[3] = 50 nM added after germination, transfer 3, 72 h culture
[4] = 50-50 (germinated and transferred in 50 nM), transfer 1, 72 h culture
[5] = 50-50 (germinated and transferred in 50 nM), transfer 2, 72 h culture
[6] = 50-50 (germinated and transferred in 50 nM), transfer 3, 72 h culture
[7] = 50-50 (spores germinated in 50 nM peptide), transfer 0 (germinated culture), 72 h culture

Substance: SYPGWSW [peptide SEQ ID NO: 143]
- Final pH [1]: 4.4
- Optical density at 600 nm [1]: 1.891
- Optical density of ceric ion reactive compounds measured at 500 nm [1]: 0.116
- Final pH [2]: 6.0
- Optical density at 600 nm [2]: 0.011
- Optical density of ceric ion reactive compounds measured at 500 nm [2]: 0.000
- Final pH [3]: 5.5
- Optical density at 600 nm [3]: 0.100
- Optical density of ceric ion reactive compounds measured at 500 nm [3]: 0.001
- Growth in sequential transfers (50 nM added after germination, untreated survived through 3 transfers): did not grow beyond the first transfer
- Culture degeneration in terms of production of total alcohols (50 nM peptide treatment during germination and growth): prevented culture degeneration
- Final pH [4]: 4.5
- Optical density at 600 nm [4]: 1.715
- Optical density of ceric ion reactive compounds measured at 500 nm [4]: 0.152
- Final pH [5]: 3.8
- Optical density at 600 nm [5]: 1.858
- Optical density of ceric ion reactive compounds measured at 500 nm [5]: −0.063
- Final pH [6]: 4.6
- Optical density at 600 nm [6]: 1.485
- Optical density of ceric ion reactive compounds measured at 500 nm [6]: 0.138
- Final pH [7]: 4.1
- Optical density at 600 nm [7]: 2.121
- Optical density of ceric ion reactive compounds measured at 500 nm [7]: 0.028
